From paper PMC8078842 (PLoS Neglected Tropical Diseases, 2021)

Assay: In situ brain/choroid plexus perfusion (10 or 30 minutes) with capillary depletion
Conditions: 30 min perfusion, not corrected for vascular space

[^3H(G)]pentamidine
RTISSUE/PLASMA% (mean ± SEM) of [^3H]pentamidine (Cerebellum, 0.1% F68 + 15.7 nM pent): 14.44 (± 2.47) % | RTISSUE/PLASMA% (mean ± SEM) of [^3H]pentamidine (Cerebellum, 0.5% F68 + 15.7 nM pent): 17.28 (± 3.54) % | RTISSUE/PLASMA% (mean ± SEM) of [^3H]pentamidine (Cerebellum, Control (15.7 nM pent)): 12.92 (± 1.10) % | RTISSUE/PLASMA% (mean ± SEM) of [^3H]pentamidine (Choroid plexus, 0.01% F68 + 15.7 nM pent): 835.26 (± 260.20) % | RTISSUE/PLASMA% (mean ± SEM) of [^3H]pentamidine (Choroid plexus, 0.1% F68 + 15.7 nM pent): 944.85 (± 235.90) % | RTISSUE/PLASMA% (mean ± SEM) of [^3H]pentamidine (Choroid plexus, 0.5% F68 + 15.7 nM pent): 1844.80 (± 493.51) % | RTISSUE/PLASMA% (mean ± SEM) of [^3H]pentamidine (Choroid plexus, Control (15.7 nM pent)): 1241.60 (± 92.86) % | RTISSUE/PLASMA% (mean ± SEM) of [^3H]pentamidine (Corpus callosum, 0.01% F68 + 15.7 nM pent): 2.02 (± 1.22) % | RTISSUE/PLASMA% (mean ± SEM) of [^3H]pentamidine (Corpus callosum, 0.1% F68 + 15.7 nM pent): 9.47 (± 0.94) % | RTISSUE/PLASMA% (mean ± SEM) of [^3H]pentamidine (Corpus callosum, 0.5% F68 + 15.7 nM pent): 15.72 (± 6.78) % | RTISSUE/PLASMA% (mean ± SEM) of [^3H]pentamidine (Corpus callosum, Control (15.7 nM pent)): 8.19 (± 1.97) % | RTISSUE/PLASMA% (mean ± SEM) of [^3H]pentamidine (Frontal cortex, 0.01% F68 + 15.7 nM pent): 9.00 (± 1.47) % | RTISSUE/PLASMA% (mean ± SEM) of [^3H]pentamidine (Frontal cortex, 0.1% F68 + 15.7 nM pent): 11.91 (± 1.35) % | RTISSUE/PLASMA% (mean ± SEM) of [^3H]pentamidine (Frontal cortex, 0.5% F68 + 15.7 nM pent): 17.54 (± 3.58) % | RTISSUE/PLASMA% (mean ± SEM) of [^3H]pentamidine (Frontal cortex, Control (15.7 nM pent)): 10.35 (± 0.84) % | RTISSUE/PLASMA% (mean ± SEM) of [^3H]pentamidine (Hippocampus, 0.01% F68 + 15.7 nM pent): 6.05 (± 1.20) % | RTISSUE/PLASMA% (mean ± SEM) of [^3H]pentamidine (Hippocampus, 0.1% F68 + 15.7 nM pent): 7.93 (± 1.20) % | RTISSUE/PLASMA% (mean ± SEM) of [^3H]pentamidine (Hippocampus, 0.5% F68 + 15.7 nM pent): 10.65 (± 2.55) % | RTISSUE/PLASMA% (mean ± SEM) of [^3H]pentamidine (Hippocampus, Control (15.7 nM pent)): 8.19 (± 0.30) % | RTISSUE/PLASMA% (mean ± SEM) of [^3H]pentamidine (Homogenate (capillary depletion), 0.01% F68 + 15.7 nM pent): 9.63 (± 0.93) % | RTISSUE/PLASMA% (mean ± SEM) of [^3H]pentamidine (Homogenate (capillary depletion), 0.1% F68 + 15.7 nM pent): 11.19 (± 1.62) % | RTISSUE/PLASMA% (mean ± SEM) of [^3H]pentamidine (Homogenate (capillary depletion), 0.5% F68 + 15.7 nM pent): 14.45 (± 3.93) % | RTISSUE/PLASMA% (mean ± SEM) of [^3H]pentamidine (Homogenate (capillary depletion), Control (15.7 nM pent)): 10.18 (± 0.92) % | RTISSUE/PLASMA% (mean ± SEM) of [^3H]pentamidine (Hypothalamus, 0.01% F68 + 15.7 nM pent): 8.90 (± 1.42) % | RTISSUE/PLASMA% (mean ± SEM) of [^3H]pentamidine (Hypothalamus, 0.1% F68 + 15.7 nM pent): 11.17 (± 1.42) % | RTISSUE/PLASMA% (mean ± SEM) of [^3H]pentamidine (Hypothalamus, 0.5% F68 + 15.7 nM pent): 18.73 (± 4.67) % | RTISSUE/PLASMA% (mean ± SEM) of [^3H]pentamidine (Hypothalamus, Control (15.7 nM pent)): 18.49 (± 4.17) % | RTISSUE/PLASMA% (mean ± SEM) of [^3H]pentamidine (Occipital cortex, 0.01% F68 + 15.7 nM pent): 8.80 (± 1.47) % | RTISSUE/PLASMA% (mean ± SEM) of [^3H]pentamidine (Occipital cortex, 0.1% F68 + 15.7 nM pent): 12.14 (± 1.62) % | RTISSUE/PLASMA% (mean ± SEM) of [^3H]pentamidine (Occipital cortex, 0.5% F68 + 15.7 nM pent): 15.85 (± 2.71) % | RTISSUE/PLASMA% (mean ± SEM) of [^3H]pentamidine (Occipital cortex, Control (15.7 nM pent)): 9.52 (± 1.08) % | RTISSUE/PLASMA% (mean ± SEM) of [^3H]pentamidine (Pellet (capillary depletion), 0.01% F68 + 15.7 nM pent): 18.16 (± 2.79) % | RTISSUE/PLASMA% (mean ± SEM) of [^3H]pentamidine (Pellet (capillary depletion), 0.1% F68 + 15.7 nM pent): 22.15 (± 4.44) % | RTISSUE/PLASMA% (mean ± SEM) of [^3H]pentamidine (Pellet (capillary depletion), Control (15.7 nM pent)): 16.45 (± 2.76) % | RTISSUE/PLASMA% (mean ± SEM) of [^3H]pentamidine (Pineal gland, 0.01% F68 + 15.7 nM pent): 341.30 (± 39.57) % | RTISSUE/PLASMA% (mean ± SEM) of [^3H]pentamidine (Pineal gland, 0.1% F68 + 15.7 nM pent): 342.95 (± 92.02) % | RTISSUE/PLASMA% (mean ± SEM) of [^3H]pentamidine (Pineal gland, 0.5% F68 + 15.7 nM pent): 525.94 (± 122.85) % | RTISSUE/PLASMA% (mean ± SEM) of [^3H]pentamidine (Pineal gland, Control (15.7 nM pent)): 664.25 (± 82.42) % | RTISSUE/PLASMA% (mean ± SEM) of [^3H]pentamidine (Pituitary gland, 0.01% F68 + 15.7 nM pent): 324.42 (± 44.06) % | RTISSUE/PLASMA% (mean ± SEM) of [^3H]pentamidine (Pituitary gland, 0.1% F68 + 15.7 nM pent): 434.10 (± 59.56) % | RTISSUE/PLASMA% (mean ± SEM) of [^3H]pentamidine (Pituitary gland, 0.5% F68 + 15.7 nM pent): 881.90 (± 170.25) % | RTISSUE/PLASMA% (mean ± SEM) of [^3H]pentamidine (Pituitary gland, Control (15.7 nM pent)): 394.51 (± 52.42) % | RTISSUE/PLASMA% (mean ± SEM) of [^3H]pentamidine (Pons, 0.01% F68 + 15.7 nM pent): 17.61 (± 3.70) % | RTISSUE/PLASMA% (mean ± SEM) of [^3H]pentamidine (Pons, 0.1% F68 + 15.7 nM pent): 20.36 (± 3.70) % | RTISSUE/PLASMA% (mean ± SEM) of [^3H]pentamidine (Pons, 0.5% F68 + 15.7 nM pent): 20.43 (± 5.67) % | RTISSUE/PLASMA% (mean ± SEM) of [^3H]pentamidine (Pons, Control (15.7 nM pent)): 15.16 (± 1.48) % | RTISSUE/PLASMA% (mean ± SEM) of [^3H]pentamidine (Supernatant (capillary depletion), 0.01% F68 + 15.7 nM pent): 3.77 (± 0.94) % | RTISSUE/PLASMA% (mean ± SEM) of [^3H]pentamidine (Supernatant (capillary depletion), 0.1% F68 + 15.7 nM pent): 6.63 (± 0.52) % | RTISSUE/PLASMA% (mean ± SEM) of [^3H]pentamidine (Supernatant (capillary depletion), 0.5% F68 + 15.7 nM pent): 6.45 (± 1.35) % | RTISSUE/PLASMA% (mean ± SEM) of [^3H]pentamidine (Supernatant (capillary depletion), Control (15.7 nM pent)): 5.54 (± 0.37) % | RTISSUE/PLASMA% (mean ± SEM) of [^3H]pentamidine (Thalamus, 0.01% F68 + 15.7 nM pent): 7.99 (± 1.06) % | RTISSUE/PLASMA% (mean ± SEM) of [^3H]pentamidine (Thalamus, 0.1% F68 + 15.7 nM pent): 11.08 (± 1.06) % | RTISSUE/PLASMA% (mean ± SEM) of [^3H]pentamidine (Thalamus, 0.5% F68 + 15.7 nM pent): 13.52 (± 3.10) % | RTISSUE/PLASMA% (mean ± SEM) of [^3H]pentamidine (Thalamus, Control (15.7 nM pent)): 9.94 (± 1.95) %
